Drawing on patent publication US10464922B2, “Metalloenzyme inhibitor compounds” (NQP 1598 LTD., priority 2015, dated 2019), this text covers MIC and IC50 for one compound.

One assay has as its system C. albicans (ATCC 90028). Description: Minimum inhibitory concentration, in vitro broth microdilution assay (CLSI M27-A2). The settings on record: Candida albicans, ATCC90028, 48 h, ATCC 90028; about 50% growth reduction; 2 days at 36° C.; range tested 8-0.0078 μg/mL; values given as ranges; read-out: Candida albicans MIC. Type of assay: cell-based, Candida albicans. The method in brief: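 CLSI M27-A2 broth microdilution: 11 two-fold DMSO dilutions into RPMI-1640+MOPS with 1×10^3–1×10^4 CFU/mL, 2 percent DMSO final. Incubated 2 days at 36° C; MIC from visual growth scoring, duplicates.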
(In general: In broth dilution the organism is exposed to a series of concentrations in liquid medium.)

The next assay has as its system A. fumigatus. Nature of the assay: A. fumigatus MIC at 100% growth inhibition (CLSI M38-A2). The settings on record: Aspergillus fumigatus, 100% growth inhibition; range tested 8-0.0078 μg/mL; values given as ranges; read-out: Aspergillus fumigatus MIC. Type of assay: cell-based, Aspergillus fumigatus. As for the experimental part:
A. fumigatus MICs were determined at 100% growth inhibition following CLSI guidelines at a concentration range of 8-0.0078 μg/mL (CLSI M38-A2).

For assay [1], the system named is Hedgehog signaling pathway Gli Reporter-NIH3T3 cells. Description: Gli luciferase reporter assay, Hedgehog signalling pathway activity. The settings on record: mShh 1 μg/ml, 27 hours. Type of assay: cell-based. On the procedure:
Hedgehog signaling pathway Gli Reporter-NIH3T3 cells were cultured in DMEM medium with 10% Calf serum, 1% Penn-strep, 500 μg/ml of Geneticin.
To perform the Gli luciferase reporter assay, Gli Reporter—NIH3T3 cells were seeded at 25,000 cells per well into white clear-bottom 96-well microplate in 100 μl of growth medium. Cells were incubated at 37° C., and 5% CO2 for overnight. The next day, remove the medium from wells and add 45 μl of diluted inhibitor in assay medium (Opti-MEM Reduced Serum Medium+0.5% calf serum+1% non-essential amino acids+1 mM Na-pyruvate+10 mM HEPES+1% Pen/Strep) per well. Incubate cells at 37° C. in a CO2 incubator for 2 hours. Then add 5 μl of diluted mShh in assay medium to wells (final [mShh]=1 μg/ml). Add 50 μl of assay medium to cell-free control wells. Cells were treated for 27 hours. After treatment, cells were lysed and luciferase assay was performed using ONE-Step luciferase assay system: add 50 μl of One-Step Luciferase reagent per well and rock at room temperature for ˜30 minutes. Luminescence was measured using a luminometer (BioTek Synergy™ 2 microplate reader). Compounds of the present invention are active in blockade of hedgehog signalling.

Turning to `CC[C@@H]([C@H](C)O)n1ncn(-c2ccc(N3CCN(c4ccc(-c5ccc(C(F)(F)C(O)(Cc6nnn[nH]6)c6ccccc6F)nc5)cc4)CC3)cc2)c1=O` (stereo partly drawn) [Example 115, 4-(4-(4-(4-(6-(1,1-difluoro-2-(2-fluorophenyl)-2-hydroxy-3-(1H-tetrazol-5-yl)propyl)pyridin-3-yl)phenyl)piperazin-1-yl)phenyl)-2-((2S,3S)-2-hydroxypentan-3-yl)-2,4-dihydro-3H-1,2,4-triazol-3-one], the minimal inhibitory concentration (MIC) with C. albicans (ATCC 90028) and in the assay on A. fumigatus was above 8 µg/mL throughout. In assay [1], the IC50 is 510 nM.

For orientation: MIC means the least concentration at which growth counts as inhibited. By IC50 is commonly meant the concentration that gives 50% inhibition.
